Data reported in US20080191164A1, “Method For the Treatment of a Material Other Than the Human Body” (priority 2005, published 2008).

Tests used:
[1] = Volatility / aptitude for drying; type: physicochemical; design: key: 0 = low; + = moderate; ++ = high
[2] = compulsory labelings; cited from earlier work
[3] = system: man; settings: cited from earlier work; for toxicity for man: compulsory labelings T, Xn, R40, R45 and/or R65
[4] = Flammability / flashpoint of the compositions; type: physicochemical; design: key to FLA = flammability: − = no; +/° C. = yes/flashpoint
[5] = Rinsability with water; type: physicochemical; design: key: 0 = poor; + = good; ++ = excellent
[6] = Biodegradability (general properties table)
[7] = background statement; cited from earlier work
[8] = system: aquatic organisms, such as bacteria, freshwater algae, daphnia and freshwater fish; assay: Toxicity for aquatic organisms
[9] = advantages hitherto described; cited from earlier work
[10] = Risks of harmfulness, protection of the aquatic environment/bioaccumulation; design: key: − = harmfulness demonstrated; + = slight risk; ++ = very slight risks
Description: For each of Compositions A to E, the characteristics of odor (“ODOR”), of stability at alkaline pH, i.e. at a pH of 9 (“STAB.”) and of risks of harmfulness in terms of protection of the aquatic environment/bioaccumulation (“BIO.”) are taken up in the table below according to the following notation: […]

[11] = Rate of evaporation with respect to n-butyl acetate; type: physicochemical; settings: 20° C.
[12] = Ready biodegradability, OECD No. 301 A (DOC Die-away Test); settings: at 28 days

Row | SMILES | VOL = volatility/aptitude for drying [1] | toxicity for the environment [2] | toxicity for man [3] | FLA = flammability [4] | RIN = rinsability with water [5] | BIO = biodegradability [6] | FLA: flashpoint [4] [°C] | flashpoint [7] [°C] | irritant nature and toxicity to man ([3]; advantages hitherto described) | toxicity for aquatic organisms [8] | miscibility with water [9] | BIO. (risks of harmfulness, aquatic environment/bioaccumulation) [10] | rate of evaporation with respect to n-butyl acetate [11] | ready biodegradability (OECD No. 301 A) [12] [%]
1 | ClC=C(Cl)Cl [Composition 1, trichloroethylene] | ++ | compulsory labelings R51/R53 | a certain toxicity for man | − | 0 | − |  |  |  |  |  |  |  | 
2 | ClCCl [Composition 2, dichloromethane] | ++ | compulsory labelings R51/R53 | a certain toxicity for man | − | 0 | − |  |  |  |  |  |  |  | 
3 | C=C(C)[C@H]1CC=C(C)CC1 [Composition 3, dipentene] | ++ |  |  | + | 0 | + | 48 |  |  |  |  |  |  | 
4 | CCOC(=O)C(C)O (stereo not shown) [Composition 4, ethyl lactate] | + |  |  | + | + |  | 46 | 46 |  |  |  |  |  | 
5 | CO[C@H]1CO[C@H]2[C@@H]1OC[C@H]2OC [Composition 5, dimethyl isosorbide] | 0 |  |  | + | ++ | + | 120 |  | absence of irritant nature and of toxicity to man | absence of toxicity | in all proportions | ++ | less than 0.005 | ~25
6 | C=C(C)[C@H]1CC=C(C)CC1 [d-limonene] |  |  |  |  |  |  |  | 48 |  |  |  |  |  | 
